The target of experiment [1] is T1, Protein kinase C alpha type (Homo sapiens, UniProt P17252). The experiment is described as follows: Displacement of phorbol 12,13-dibutyrate (PDBU) from recombinant Protein kinase C alpha.
Experiment [2] deals with T1, Protein kinase C alpha type. The experiment is described as follows: Displacement of phorbol 12,13-dibutyrate (PDBU) from recombinant Protein kinase C alpha (Inactive at 300 nM).

The term Ki denotes the dissociation constant of the complex between target and ligand, obtained from inhibition or displacement. On to `CCCCCCCCC#Cc1ccc2c(c1)[C@@H](CO)NC(=O)[C@H](C(C)C)N2C`, for which the Ki in experiment [1] was 21 µM.

For the compound `CC(C)[C@H]1C(=O)NC(CO)c2ccccc2N1C` (single isomer, unassigned), the inhibition constant (Ki) result in experiment [2] was “Not Active”.

Take `CC(C)[C@H]1C(=O)N[C@H](CO)c2ccccc2N1C`: the Ki in experiment [1] came out at 127 µM.
